How the values were obtained:
MDA-MB-231-Br cells = test: WST-1 cell proliferation assay, MDA-MB-231-Br; assay type: cell-based, human
PDL2 = test: Immunofluorescence microscopy of nuclear PDL2; assay type: cell-based, human; details: MDA-MB-231 breast cancer cell line
Method: The cells were fixed and immunofluorescence microscopy was performed. Digital images were analysed using ImageJ software (ImageJ, NIH, Bethesda, MD, USA) to determine the mean nuclear fluorescent intensity (TNFI) in cells measured using ImageJ to select the nucleus minus background (n=>500 cells/sample).

[1] = system: PKCθ, LSD1, p65, C-Rel, SET, pSTAT3; test: Determination of nuclear-associated proteins; assay type: cell-based, human; details: MDA-MB-231, 10 μM
Method: MDA-MB-231 cells were treated with DL-2 with concentration of 10 μM. MDA-MB-231 cells were treated with DL-2 or control and were permeabilised before being probed with the antibodies specific for PKCθ, LSD1, p65, C-Rel, SET, pSTAT3. Cover slips were mounted on glass microscope slides with ProLong nucblue glass Antifade reagent (Life Technologies). Digital images were analysed using ImageJ software (ImageJ, NIH, Bethesda, MD, USA) and graphs represent the mean fluorescence intensity in the nucleus or the cytoplasm compartments with significant differences calculated as per Mann-Whitney pairwise comparison.

[2] = system: 4T1 TNBC metastatic cancer cells; test: 4T1 model of metastatic breast cancer in mice; assay type: in vivo, mouse
Method: 4T1 Gold standard immunotherapy resistant mouse model mice obtained from the ARC, Perth and mice were inoculated with 4T1 TNBC metastatic cancer cells. DL-2 is supplied lyophilised in glass vials and was reconstituted using sodium chloride injection BP (0.9% saline) to make a stock solution of 10 mg/mL using a needle/syringe, DL-2 was mixed by inversion. Animals were then injected by intraperitoneal injection at 10, 20 or 30 mg/kg daily and rested over the weekend. Mice were monitored over time for body weight and tumour volume.
4T1 Gold standard immunotherapy resistant mouse model mice obtained from the ARC, Perth and mice were inoculated with 4T1 TNBC metastatic cancer cells. DL-2 or DL-2-D is supplied lyophilised in glass vials was reconstituted using sodium chloride injection BP (0.9% saline) to make a stock solution of 10 mg/mL using a needle/syringe, DL-2 was mixed by inversion. Animals were then injected by intraperitoneal injection and mice were monitored over time for body weight and tumour volume for DL-2 at 20 mg/kg every second day with resting over the weekend in conjunction with αPD1 or isotype control (10 mg/kg).
DL-2-D was mixed by inversion. Animals were then injected by intraperitoneal injection and mice were monitored over time for body weight and tumour volume for DL-2-D at a concentration of 20 mg/kg every two days (identical regime to αPD1) in conjunction with αPD1 or isotype control (10 mg/kg).

Structure (SMILES): CCCCCCCCCCCCCC(=O)NC(C)C(=O)NC1CSCc2cc3cc(c2)CSC[C@H](NC(=O)[C@H](Cc2ccccc2)NC(=O)[C@H](C(C)CC)NC(=O)[C@H](Cc2ccccc2)NC(=O)[C@H]([C@@H](C)O)NC(=O)C(CC(C)C)NC1=O)C(=O)N[C@@H](CCCNC(C)=N)C(=O)N[C@@H](CC(C)C)C(=O)N[C@@H](CCCNC(=N)N)C(=O)N[C@@H](CCCCN)C(=O)NCC(=O)N[C@@H](CCCNC(=N)N)C(=O)NC(C(=O)N[C@@H](CCSC)C(=O)NC(CCSC)C(=O)N[C@@H](CC(=O)O)C(=O)NC(C(=O)N[C@@H](CCCCN)C(=O)NC(CCCCN)C(=O)O)C(C)C)CSC3 (mixture of isomers) [DL-2]
- inhibition of proliferation (MDA-MB-231-Br cells; WST-1): able to inhibit proliferation
- potency of proliferation inhibition relative to DL-1 (MDA-MB-231-Br cells; higher potency than DL-1): 2-3 fold
- nuclear expression of PDL2 (PDL2): no effect at all
- off-target effects on nuclear proteins (PKCθ, LSD1, p65, C-Rel, SET, pSTAT3) [1]: No off-target effects were observed
- body weight ([2]; DL-2 and anti-PD1 combination therapy): No change
- primary tumour volume ([2]; DL-2 in combination with an anti-PD1 antibody, 10 day treatment period): significantly reduces
- lung, liver or spleen weights ([2]; DL-2 in combination with anti-PD1): does not alter
- body weight ([2]; DL-2 monotherapy): No change
- lung, liver or spleen weights ([2]; DL-2 monotherapy): does not alter
- primary tumour volume ([2]; DL-2 monotherapy 20 and 30 mg/kg i.p., eight day treatment period): reduces
- tumour weight ([2]; DL-2 monotherapy 20 and 30 mg/kg, after 8 days): significantly reduced
